Experimental data published in PMC12081876, “Identification of PTGR2 inhibitors as a new therapeutic strategy for diabetes and obesity” (EMBO Molecular Medicine, 2025).
“And” between values parts separate entries of the source, which are not always exact repeats. Equal values may be shown once.

Tests used:
[1] = tested on: HFHSD-fed obese C57BL6/J mice; experiment: Bone mineral density of femur (micro CT); assay type: in vivo, mouse
[2] = tested on: HFHSD-fed obese C57BL6/J mice; experiment: Cold tolerance test (cold-induced thermogenesis); assay type: in vivo, mouse; conditions: for interscapular area temperature, Average / interscapular area temperature: Figure 2T left panel; for interscapular area temperature, Average / rectal temperatures, Average: average of 12 mice; for interscapular area temperature, Average / interscapular area temperature / inguinal area temperature / rectal temperatures, Average / rectal temperatures: in °C (unit assumed); for interscapular area temperature / inguinal area temperature / rectal temperatures: individual mice; for inguinal area temperature: Figure 2T middle panel; for rectal temperatures, Average / rectal temperatures: Figure 2T right panel; for temperature, Figure 2T middle panel, Average: in °C
Method: For the cold tolerance test, 24-week-old mice with matched average body weight from the two groups were placed individually on HFHSD in a 4 °C chamber. The rectal temperature of the mice was measured after 0, 1, 2, 3, 4, 5, 6, 12, and 18 h. For measuring diet-induced thermogenesis, 24-week-old mice were fasted overnight for 18 h. Then, we measured their rectal temperature at 0, 30, 60, 90, 120, 150, 180, and 240 min after HFHSD refeeding. The rectal and surface temperature were detected by thermal probes (Physitemp Therma TH-5, ThermoWorks, Alpine and MicroTherma 2T, ThermoWorks, Alpine, respectively).

PPARγ lysine acetylation = experiment: Cell-based PPARγ acetylation assay; parameters: species or system mouse; conditions: cultured adipocytes
Method: One day after achieving 100% confluence, 3T3-L1 cells were induced differentiation with 0.5 mM IBMX, 1 µm dexamethasone and 10 μg/mL insulin in DMEM containing 10% FBS for 2 days and maintained differentiation in DMEM supplemented with 10 μg/mL insulin and 10% FBS for 6 days. The medium was changed every 2 days. […] Cells were harvested and lysed in RIPA buffer supplemented with 1X cOmplete™, EDTA-free Protease Inhibitor Cocktail (cat. no. 04693132001, Roche) and 1X PhosSTOP™ (cat. no. 4906845001, Roche). The protein concentrations of cell lysates were measured by Bradford reagent (cat. no. BP500-0006, Bio-Rad). The protein samples were performed immunoprecipitation with magnetic beads (Protein G Mag Sepharose™, Cytiva). Briefly, 200 μg of protein samples were incubated in 500 μl of PBS buffer containing 1 μg of anti-PPARγ antibody or 1 μg of anti-rabbit IgG antibody with gentle rotation at 4 °C overnight. On the next day, PBS-washed beads were incubated with overnight mixture of protein sample and antibody at 4 °C for 1 h with gentle rotation. Then the beads were washed three times with 1000 μl of PBS and harvested with centrifugation at 4 °C and 10,000 × g for 5 min. […] Acetylation level of PPARγ was analyzed using Image J software and normalized against PPARγ.

Cc1[nH]c2nc(C(C)N3CCN(c4ccccc4)CC3)nn2c(=O)c1Cc1ccc(F)cc1 (stereo not shown) [BPRPT0245]
Bone mineral density ([1]; 100 mg/kg/day oral, 26 weeks, vs vehicle): no difference | Figure 5T value (bone mineral density of femur), individual mice ([1]; individual values, BPRPT0245 group (Figure 5T)): 0.3548 and 0.3423 and 0.3795 and 0.3591 and 0.3711 and 0.3604 and 0.3411 and 0.3634 and 0.3483 and 0.3707

CCCCCC(=O)/C=C/[C@H]1[C@H](O)CC(=O)[C@@H]1C/C=C\CCCC(=O)O [15-keto-PGE2, 15-keto-prostaglandin E2]
interscapular, inguinal and rectal temperatures during cold test ([2]; 40 mg/kg/day ip, vs vehicle): higher interscapular, inguinal, and rectal temperatures than vehicle controls during prolonged cold tests | interscapular area temperature, Average ([2]; period 0 hr): 38.275 | interscapular area temperature ([2]; period 0 hr): 37.4 and 37.9 and 38.2 and 38.1 and 38.9 | interscapular area temperature, Average ([2]; period 1 hr): 37.6917 | interscapular area temperature ([2]; period 1 hr): 37.1 and 37.5 and 37.2 and 37.9 and 37.4 | interscapular area temperature, Average ([2]; period 2 hr): 37.3583 | interscapular area temperature ([2]; period 2 hr): 37.4 and 37.2 and 36.9 and 37.8 and 37.6 and 36.4 | interscapular area temperature, Average ([2]; period 3 hr): 37.0083 | interscapular area temperature ([2]; period 3 hr): 37.2 and 37.1 and 36.5 and 37.3 and 37.5 and 36.4 | interscapular area temperature, Average ([2]; period 4 hr): 37.0083 | interscapular area temperature ([2]; period 4 hr): 37 and 36.8 and 37.6 and 37.3 and 36.2 | interscapular area temperature, Average ([2]; period 5 hr): 36.8917 | interscapular area temperature ([2]; period 5 hr): 36.5 and 37 and 36.7 and 36.9 and 37.1 | interscapular area temperature, Average ([2]; period 6 hr): 36.7583 | interscapular area temperature ([2]; period 6 hr): 36.2 and 36.3 and 36.9 and 37.9 and 37 | interscapular area temperature, Average ([2]; period 12 hr): 35.6833 | interscapular area temperature ([2]; period 12 hr): 36.2 and 37.5 and 34.9 and 35.7 and 35.4 | interscapular area temperature, Average ([2]; period 18 hr): 34.8333 | interscapular area temperature ([2]; period 18 hr): 36.3 and 35.5 and 33.6 and 33.9 and 35.7 | inguinal area temperature ([2]; period 0 hr): 36.2 and 36.9 and 37.2 | inguinal area temperature ([2]; period 1 hr): 36.2 and 36.8 | inguinal area temperature ([2]; period 2 hr): 35.8 and 34.9 | inguinal area temperature ([2]; period 3 hr): 35.5 and 34.7 | inguinal area temperature ([2]; period 4 hr): 35 and 34.8 | inguinal area temperature ([2]; period 5 hr): 34.9 and 34.7 | inguinal area temperature ([2]; period 6 hr): 35.2 and 34.9 | inguinal area temperature ([2]; period 12 hr): 32.9 and 34.1 | inguinal area temperature ([2]; period 18 hr): 33.2 and 33.7 | rectal temperatures, Average ([2]; period 0 hr): 37.9667 | rectal temperatures ([2]; period 0 hr): 37.6 and 38.1 and 38.5 and 37.9 and 36.3 and 38.3 and 38 | rectal temperatures, Average ([2]; period 1 hr): 37.1667 | rectal temperatures ([2]; period 1 hr): 37 and 37.2 and 37.1 and 37.3 and 36.6 and 37.4 and 37.8 and 37.6 | rectal temperatures, Average ([2]; period 2 hr): 36.6917 | rectal temperatures ([2]; period 2 hr): 37.4 and 35.2 and 36.3 and 37 and 37.2 and 36.8 and 36.6 and 36.9 and 36.1 and 36.4 | rectal temperatures, Average ([2]; period 3 hr): 36.45 | rectal temperatures ([2]; period 3 hr): 36.7 and 36 and 36.6 and 36.9 and 35.8 and 37.5 and 36.3 and 36.2 and 36.1 and 36.4 | rectal temperatures, Average ([2]; period 4 hr): 36.45 | rectal temperatures ([2]; period 4 hr): 37 and 36.2 and 36.8 and 37.2 and 36.7 and 36 and 35.7 and 36.4 | rectal temperatures, Average ([2]; period 5 hr): 36.4167 | rectal temperatures ([2]; period 5 hr): 37.6 and 36.4 and 36.3 and 36.1 and 36.5 and 36.7 and 35.8 and 36.2 | rectal temperatures, Average ([2]; period 6 hr): 36.4167 | rectal temperatures ([2]; period 6 hr): 36.8 and 36.6 and 36.4 and 35.6 and 37.3 and 36.1 and 36 and 35.5 | rectal temperatures, Average ([2]; period 12 hr): 35.6917 | rectal temperatures ([2]; period 12 hr): 35.9 and 37.5 and 34.2 and 35.3 and 37.6 and 34.5 and 35.2 and 36.3 and 37.9 | rectal temperatures, Average ([2]; period 18 hr): 34.025 | rectal temperatures ([2]; period 18 hr): 35.7 and 34.9 and 33 and 33.1 and 34.8 and 34.6 and 32 and 34.5 and 33.4 and 33.6 and 34.2 | temperature, Figure 2T middle panel, Average ([2]; time 0): 36.2 | temperature, Figure 2T middle panel, Average ([2]; time 1): 36.0083 | temperature, Figure 2T middle panel, Average ([2]; time 2): 35.325 | temperature, Figure 2T middle panel, Average ([2]; time 3): 35.0083 | temperature, Figure 2T middle panel, Average ([2]; time 4): 34.8083 | temperature, Figure 2T middle panel, Average ([2]; time 5): 34.6417 | temperature, Figure 2T middle panel, Average ([2]; time 6): 34.6417 | temperature, Figure 2T middle panel, Average ([2]; time 12): 34.375 | temperature, Figure 2T middle panel, Average ([2]; time 18): 33.2583 | acetylation of the PPARγ LBD (PPARγ lysine acetylation): no altered acetylation of the PPARγ LBD
